Results as given in patent US8058247B2 (priority 2006, dated 2011).

Columns and labels:
M. bovis BCG Japanese = format: cell-based, Mycobacterium bovis; conditions: agar dilution, 3-week incubation at 37° C.; smaller number = higher activity
[1] = test system: M. avium subsp. avium ATCC25291; test: Minimum growth inhibitory concentration (MIC), serial dilution on Middlebrook 7H10 agar with mycobactin J; format: cell-based, Mycobacterium avium subsp. avium; conditions: 3-week incubation at 37° C., smaller number = higher activity
[2] = test system: M. avium subsp. paratuberculosis ATCC43015; format: cell-based, Mycobacterium avium subsp. paratuberculosis

## caprazol-3′″-dodecanoyl ester derivative [Compound VII-F]
M. bovis BCG Japanese
  Minumum growth inhibitory conc. of test compounds, M. bovis BCG Japanese: 3.13 µg/mL
[1]
  Minumum growth inhibitory conc. of test compounds, M. avium subsp. avium ATCC25291: 12.5 µg/mL
[2]
  Minumum growth inhibitory conc. of test compounds, M. avium subsp. paratuberculosis ATCC43015: 0.78 µg/mL

## NNC(=O)c1ccncc1 [INH, isoniazid]
M. bovis BCG Japanese
  Minumum growth inhibitory conc. of test compounds, M. bovis BCG Japanese: 0.20 µg/mL
[1]
  Minumum growth inhibitory conc. of test compounds, M. avium subsp. avium ATCC25291: >50 µg/mL
[2]
  Minumum growth inhibitory conc. of test compounds, M. avium subsp. paratuberculosis ATCC43015: >50 µg/mL
  antibacterial activity against Mycobacterium avium subsp. paratuberculosis compared with the caprazamycin derivatives of Production Examples 1 and 2: lower antibacterial activity

## caprazamycin B [CPZ-B]
M. bovis BCG Japanese
  Minumum growth inhibitory conc. of test compounds, M. bovis BCG Japanese: 6.25 µg/mL
[1]
  Minumum growth inhibitory conc. of test compounds, M. avium subsp. avium ATCC25291: 12.5 µg/mL
[2]
  Minumum growth inhibitory conc. of test compounds, M. avium subsp. paratuberculosis ATCC43015: 3.13 µg/mL
  antibacterial activity against Mycobacterium avium subsp. paratuberculosis compared with the caprazamycin derivatives of Production Examples 1 and 2: lower antibacterial activity
